From the NIST ThermoML archive (doi:10.1016/j.fluid.2015.07.030)
Numbers after ± are expanded uncertainties.

Experiment: refractive index (other wavelength) (dimensionless); xn = mol fraction of the nth substance listed
Settings: 298.15 K, 95.99 kPa, Liquid, Standard Abbe refractometry

OCCOCCOCCO [triethylene glycol] + O
refractive index
Settings | Wavelength=486.1 nm | Wavelength=546.1 nm | Wavelength=587.6 nm | Wavelength=589.3 nm | Wavelength=632.8 nm | Wavelength=644 nm
x2 = 0 | – | 1.45629 ± 0.00033 | 1.45447 ± 0.00033 | 1.4544 ± 0.00033 | 1.45284 ± 0.00033 | 1.45249 ± 0.00033
x2 = 0.1056 | – | 1.45488 ± 0.00033 | 1.45307 ± 0.00033 | 1.453 ± 0.00033 | 1.45145 ± 0.00033 | 1.45109 ± 0.00033
x2 = 0.2069 | – | 1.45318 ± 0.00032 | 1.45138 ± 0.00032 | 1.45132 ± 0.00032 | 1.44978 ± 0.00032 | 1.44942 ± 0.00032
x2 = 0.3104 | – | 1.44993 ± 0.00032 | 1.44814 ± 0.00032 | 1.44807 ± 0.00032 | 1.44653 ± 0.00032 | 1.44617 ± 0.00032
x2 = 0.4844 | – | 1.44606 ± 0.00032 | 1.44428 ± 0.00032 | 1.44422 ± 0.00032 | 1.44269 ± 0.00032 | 1.44234 ± 0.00032
x2 = 0.5016 | 1.44841 ± 0.00032 | 1.44506 ± 0.00032 | 1.44328 ± 0.00032 | 1.44322 ± 0.00032 | 1.44169 ± 0.00032 | 1.44134 ± 0.00032
x2 = 0.5952 | 1.44171 ± 0.00032 | 1.43842 ± 0.00032 | 1.43668 ± 0.00032 | 1.43661 ± 0.00032 | 1.4351 ± 0.00032 | 1.43475 ± 0.00032
x2 = 0.6016 | 1.44175 ± 0.00032 | 1.43845 ± 0.00032 | 1.43673 ± 0.00032 | 1.43666 ± 0.00032 | 1.43516 ± 0.00032 | 1.43481 ± 0.00032
x2 = 0.6788 | 1.43522 ± 0.00032 | 1.43197 ± 0.00032 | 1.43025 ± 0.00032 | 1.43019 ± 0.00032 | 1.4287 ± 0.00032 | 1.42835 ± 0.00032
x2 = 0.7835 | 1.42571 ± 0.00032 | 1.42254 ± 0.00032 | 1.42088 ± 0.00032 | 1.42082 ± 0.00032 | 1.41936 ± 0.00032 | 1.41901 ± 0.00032
x2 = 0.8184 | 1.42045 ± 0.00032 | 1.41732 ± 0.00032 | 1.41568 ± 0.00032 | 1.41562 ± 0.00032 | 1.41417 ± 0.00032 | 1.41382 ± 0.00032
x2 = 0.8473 | 1.41417 ± 0.00032 | 1.41108 ± 0.00032 | 1.40947 ± 0.00032 | 1.40941 ± 0.00032 | 1.40798 ± 0.00032 | 1.40763 ± 0.00032
x2 = 0.8719 | 1.40723 ± 0.00032 | 1.40421 ± 0.00032 | 1.40261 ± 0.00032 | 1.40255 ± 0.00032 | 1.40113 ± 0.00032 | 1.40079 ± 0.00032
x2 = 0.8926 | 1.3994 ± 0.00032 | 1.39645 ± 0.00032 | 1.39488 ± 0.00032 | 1.39482 ± 0.00032 | 1.39343 ± 0.00032 | 1.3931 ± 0.00032
x2 = 0.9106 | 1.39379 ± 0.00032 | 1.39086 ± 0.00032 | 1.3893 ± 0.00032 | 1.38924 ± 0.00032 | 1.38785 ± 0.00032 | 1.38752 ± 0.00032
x2 = 0.9254 | 1.3833 ± 0.00032 | 1.38042 ± 0.00032 | 1.37889 ± 0.00032 | 1.37884 ± 0.00032 | 1.37748 ± 0.00032 | 1.37714 ± 0.00032
x2 = 0.9303 | 1.38472 ± 0.00031 | 1.38187 ± 0.00031 | 1.38035 ± 0.00031 | 1.38029 ± 0.00031 | 1.37892 ± 0.00031 | 1.37859 ± 0.00031
x2 = 0.9391 | 1.38066 ± 0.00032 | 1.37781 ± 0.00032 | 1.37628 ± 0.00032 | 1.37622 ± 0.00032 | 1.37485 ± 0.00032 | 1.37452 ± 0.00032
x2 = 0.951 | 1.37385 ± 0.00031 | 1.37104 ± 0.00031 | 1.36953 ± 0.00031 | 1.36947 ± 0.00031 | 1.36812 ± 0.00031 | 1.3678 ± 0.00031
x2 = 0.9599 | 1.36797 ± 0.00031 | 1.36514 ± 0.00031 | 1.36364 ± 0.00031 | 1.36359 ± 0.00031 | 1.36225 ± 0.00031 | 1.36139 ± 0.00031
x2 = 0.9708 | 1.35998 ± 0.00031 | 1.35727 ± 0.00031 | 1.35581 ± 0.00031 | 1.35576 ± 0.00031 | 1.35444 ± 0.00031 | –
x2 = 0.979 | 1.35488 ± 0.00031 | 1.35218 ± 0.00031 | 1.35072 ± 0.00031 | 1.35066 ± 0.00031 | 1.34937 ± 0.00031 | –
x2 = 0.9867 | 1.34888 ± 0.00031 | 1.34617 ± 0.00031 | 1.34473 ± 0.00031 | 1.34467 ± 0.00031 | 1.3434 ± 0.00031 | –
x2 = 0.9936 | 1.34258 ± 0.00031 | 1.33995 ± 0.00031 | 1.33852 ± 0.00031 | 1.33847 ± 0.00031 | 1.3372 ± 0.00031 | –
